# Test results taken from patent US6426343B1, “Preparation and use of a specific GABA-Aα5 receptor ligand for treatment of Alzheimer's disease” (Merck Sharp & Dohme Ltd., priority 1995, dated 2002).
# Experiments:
# [1] = Blood levels after subcutaneous pellet implantation; conditions: 1.5 mg in hydroxy propylmethylcellulose pellet, rats
# α5-containing receptors = experiment: Occupancy of α5-containing receptors calculated by Clarke's equation; type: in vivo, mouse
# Protocol: If it is assumed that the percentage inhibition of in vivo [^3H]Ro 15-1788 binding is a measure of receptor occupancy then the concentration at the receptor site in brain can be calculated according to Clarke's equation (occupancy=[drug]/[drug]+Ki). Substituting the occupancy determined at α1 and α2/3-containing receptors, the concentration of FG 8094 available at BZ binding sites in […] is 7.8 nM and 13.2 nM respectively. Occupancy at α5-containing receptors cannot be measured directly because of the low abundance of the receptor, but it can be calculated using the concentration of drug and binding affinity using Clarke's equation. This predicts 95-97 % occupancy of α5-containing receptors 30 min after administration of FG 8094 (1 mg/kg).
# Forebrain (all α) = experiment: In vivo [3H]Ro 15-1788 binding, forebrain; design: species or system mouse; conditions: 30 min, mean±SEM, relative to vehicle
# Protocol: The in vivo binding of [^3H]Ro 15-1788 to mouse brain was performed essentially as described by Goeders and Kuhar (1985). Male Swiss-Webster mice received a 0.9% NaCl solution containing 50 mCi/kg of [^3H]Ro 15-1788 (0.05 ml/10 g of body weight) via the tail vein. […] Each mouse brain was then rapidly removed, homogenised in 5.0 ml of 50 mM Tris HCl, 5.0 mM EDTA, pH 7.4 at 4° C. using an ultra-turrax homogeniser for 10 s at setting 5. In a separate series of experiments different brain regions, selected for their preferential expression of particular GABA subtypes were also examined. Binding of [^3H]Ro 15-1788 to cerebellum is almost exclusively α1-like (Quirk et al, 1994), whereas binding to spinal cord is indicative of binding to receptors containing α2 or α3-subtypes, α1, α4 and α5 are rare or absent in this region (Wisden et al, 1992). Brains were rapidly dissected into forebrain and cerebellum and the spinal cord was also removed. […] Volumes ([…]) of homogenate were filtered rapidly through GF/B filters, washed with 2×5.0 ml volumes of ice-cold buffer and the residual radioactivity was counted by liquid scintillation spectroscopy. […]
# α5β2γ2 = biological target: T1, α5β2γ2 (Homo sapiens, UniProt P18507+P31644); experiment: Two electrode voltage-clamp, modulation of GABA EC20 current in Xenopus oocytes; type: cell-based; conditions: 1 μM
# T1 construct: expressed in transfected cells; host or cells: Xenopus oocytes, nuclear injection of cDNAs in pCDM8
# Protocol: (§1) Binding studies on transfected cells containing α1β3γ2S, α2β3γ2S, and α5β3γ2S have identified compounds with α5 selectivity. These compounds were studied using electrophysiological techniques (Wafford et al, 1993) to determine their functional effects on […], α2β2γ2S, α3β2γ2S, α5β2γ2S and α6β2γ2S GABAA receptors expressed in Xenopus oocytes. Oocyte nuclei were directly injected with 10.0-20.0 nl of the relevant cDNAs (6.0 ng/μl) engineered into the expression vector pCDM8. Following incubation for 24 h, oocytes were placed in a […] and perfused with saline. By using the two electrode voltage-clamp recording method, GABA activated currents could be measured by bathing the cell in a solution containing GABA. Firstly a reproducible current response was established using a GABA concentration which gave approximately 20% of the maximal GABA response that could be elicited (EC20). […] The response could be potentiated by a BZ receptor agonist or inhibited by BZ receptor inverse agonist
# α3β2γ2 = biological target: T2, α3β2γ2 (Homo sapiens, UniProt P18507+P34903); experiment: as above; type: cell-based; conditions: 1 μM
# T2 construct: expressed in transfected cells; host or cells: Xenopus oocytes, nuclear injection of cDNAs in pCDM8
# Protocol: as §1
# α2β2γ2 = biological target: T3, α2β2γ2 (Homo sapiens, UniProt P18507+P47869); experiment: as above; type: cell-based; conditions: 1 μM
# T3 construct: expressed in transfected cells; host or cells: Xenopus oocytes, nuclear injection of cDNAs in pCDM8
# Protocol: as §1
# α1β2γ2 = biological target: T4, α1β2γ2 (Homo sapiens, UniProt P14867+P18507); experiment: as above; type: cell-based; conditions: 1 μM
# T4 construct: expressed in transfected cells; host or cells: Xenopus oocytes, nuclear injection of cDNAs in pCDM8
# Protocol: as §1
# T4 sequence (P14867 28-456): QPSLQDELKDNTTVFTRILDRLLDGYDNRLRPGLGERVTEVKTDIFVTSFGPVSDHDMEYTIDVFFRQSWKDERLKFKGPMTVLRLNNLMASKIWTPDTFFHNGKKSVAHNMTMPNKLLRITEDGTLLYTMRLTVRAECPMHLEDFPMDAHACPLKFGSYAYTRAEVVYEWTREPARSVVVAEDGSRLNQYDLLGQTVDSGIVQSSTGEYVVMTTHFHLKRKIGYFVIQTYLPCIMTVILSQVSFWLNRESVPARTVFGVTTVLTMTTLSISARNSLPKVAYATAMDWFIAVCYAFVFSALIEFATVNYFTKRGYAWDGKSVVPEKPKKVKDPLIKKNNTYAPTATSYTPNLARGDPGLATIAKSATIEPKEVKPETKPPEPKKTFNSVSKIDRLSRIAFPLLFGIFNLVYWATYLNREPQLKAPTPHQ
# T4 sequence (P47870 25-512 partner limits assumed): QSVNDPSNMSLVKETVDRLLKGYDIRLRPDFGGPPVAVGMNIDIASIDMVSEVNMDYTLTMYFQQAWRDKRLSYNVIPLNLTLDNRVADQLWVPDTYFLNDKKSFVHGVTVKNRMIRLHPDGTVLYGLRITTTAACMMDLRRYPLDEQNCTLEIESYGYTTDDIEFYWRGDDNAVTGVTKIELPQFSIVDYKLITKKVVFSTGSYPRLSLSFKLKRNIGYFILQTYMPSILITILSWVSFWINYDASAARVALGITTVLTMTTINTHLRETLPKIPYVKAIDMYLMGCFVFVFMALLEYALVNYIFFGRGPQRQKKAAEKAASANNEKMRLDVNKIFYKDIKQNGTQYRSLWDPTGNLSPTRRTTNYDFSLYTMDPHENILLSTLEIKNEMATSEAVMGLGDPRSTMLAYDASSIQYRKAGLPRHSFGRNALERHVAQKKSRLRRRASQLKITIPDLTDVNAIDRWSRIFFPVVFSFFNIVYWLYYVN
# T4 sequence (P18507 40-467 isoform P18507-1 limits assumed): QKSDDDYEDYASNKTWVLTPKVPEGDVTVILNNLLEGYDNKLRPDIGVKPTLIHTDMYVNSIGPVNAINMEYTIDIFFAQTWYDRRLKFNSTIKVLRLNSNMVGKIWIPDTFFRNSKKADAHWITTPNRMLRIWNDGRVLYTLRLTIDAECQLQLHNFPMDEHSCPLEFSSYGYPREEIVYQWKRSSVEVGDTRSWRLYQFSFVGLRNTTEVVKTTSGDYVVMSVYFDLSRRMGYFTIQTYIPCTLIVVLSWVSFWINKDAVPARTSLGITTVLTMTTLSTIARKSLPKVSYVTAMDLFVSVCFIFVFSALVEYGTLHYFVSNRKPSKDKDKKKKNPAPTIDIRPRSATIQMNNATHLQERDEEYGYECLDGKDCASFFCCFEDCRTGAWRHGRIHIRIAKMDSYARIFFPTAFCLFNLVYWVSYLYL
# T3 sequence (P47869 29-451): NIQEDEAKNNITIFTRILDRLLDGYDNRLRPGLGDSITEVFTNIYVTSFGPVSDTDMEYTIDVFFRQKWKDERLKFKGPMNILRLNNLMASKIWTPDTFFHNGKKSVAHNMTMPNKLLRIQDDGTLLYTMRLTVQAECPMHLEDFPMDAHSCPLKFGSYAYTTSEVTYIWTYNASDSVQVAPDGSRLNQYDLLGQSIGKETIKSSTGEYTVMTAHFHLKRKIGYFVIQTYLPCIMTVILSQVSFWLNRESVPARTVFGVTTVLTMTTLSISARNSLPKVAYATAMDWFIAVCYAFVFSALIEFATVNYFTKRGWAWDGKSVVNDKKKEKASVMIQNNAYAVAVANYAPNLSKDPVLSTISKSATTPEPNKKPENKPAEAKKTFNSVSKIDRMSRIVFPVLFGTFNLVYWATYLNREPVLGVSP
# T3 sequence (P47870 25-512 partner limits assumed): as the sequence (P47870 25-512 partner limits assumed) above
# T3 sequence (P18507 40-467 isoform P18507-1 limits assumed): as the sequence (P18507 40-467 isoform P18507-1 limits assumed) above
# T2 sequence (P34903 29-492): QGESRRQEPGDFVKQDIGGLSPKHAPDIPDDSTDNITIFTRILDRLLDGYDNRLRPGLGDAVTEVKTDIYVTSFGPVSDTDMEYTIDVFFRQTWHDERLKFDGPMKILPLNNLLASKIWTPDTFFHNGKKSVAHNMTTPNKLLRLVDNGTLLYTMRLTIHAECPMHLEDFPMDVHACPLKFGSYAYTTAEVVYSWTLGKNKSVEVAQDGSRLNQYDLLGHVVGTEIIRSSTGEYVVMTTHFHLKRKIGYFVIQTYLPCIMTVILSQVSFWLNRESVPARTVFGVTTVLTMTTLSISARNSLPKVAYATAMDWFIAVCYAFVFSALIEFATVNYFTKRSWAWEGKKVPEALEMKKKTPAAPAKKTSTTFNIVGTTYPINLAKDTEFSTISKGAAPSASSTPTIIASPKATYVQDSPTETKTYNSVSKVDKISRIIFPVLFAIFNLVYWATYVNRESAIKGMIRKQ
# T2 sequence (P47870 25-512 partner limits assumed): as the sequence (P47870 25-512 partner limits assumed) above
# T2 sequence (P18507 40-467 isoform P18507-1 limits assumed): as the sequence (P18507 40-467 isoform P18507-1 limits assumed) above
# T1 sequence (P31644 32-462): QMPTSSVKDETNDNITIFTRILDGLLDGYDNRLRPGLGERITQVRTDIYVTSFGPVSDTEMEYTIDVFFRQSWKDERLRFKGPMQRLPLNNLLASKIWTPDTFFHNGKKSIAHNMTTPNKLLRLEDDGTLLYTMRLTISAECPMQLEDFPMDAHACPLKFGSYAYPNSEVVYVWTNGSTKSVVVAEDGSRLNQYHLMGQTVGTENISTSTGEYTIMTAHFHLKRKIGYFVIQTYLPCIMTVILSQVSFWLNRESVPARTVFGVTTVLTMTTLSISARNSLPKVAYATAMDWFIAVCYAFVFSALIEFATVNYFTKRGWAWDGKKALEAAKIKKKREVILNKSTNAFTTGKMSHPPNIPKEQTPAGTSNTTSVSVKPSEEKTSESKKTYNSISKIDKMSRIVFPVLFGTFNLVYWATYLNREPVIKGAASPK
# T1 sequence (P47870 25-512 partner limits assumed): as the sequence (P47870 25-512 partner limits assumed) above
# T1 sequence (P18507 40-467 isoform P18507-1 limits assumed): as the sequence (P18507 40-467 isoform P18507-1 limits assumed) above
structure (smiles),measurement,setting,value
"CCOC(=O)c1ncn2c1[C@@H]1CCCN1C(=O)c1cc(OC)ccc1-2 [FG 8094, 9H-imidazo[1,5-a]pyrrolo[2,1-C][1,4]benzodiazepine-1-carboxylic acid, 11, 12, 13, 13a-tetrahydro-7-methoxy-9-oxo-, ethyl ester, (S)-(9CI)]",blood levels,[1],greater than 100 ng/ml
same,duration of blood levels greater than 100 ng/ml,[1],more than 6 hours
same,occupancy of α5-containing receptors,α5-containing receptors; 1.0 mg/kg,virtually all
same,predicted occupancy of α5-containing receptors,"α5-containing receptors; 30 min after 1 mg/kg, Clarke's equation",95-97%
same,"percentage inhibition of in vivo [3H]Ro 15-1788 binding, forebrain",Forebrain (all α); 1 mg/kg ip,8.3 ± 3.2
same,"percentage inhibition of in vivo [3H]Ro 15-1788 binding, forebrain",Forebrain (all α); 10 mg/kg ip,53.3 ± 4.2
same,"functional effect on GABA EC20 current, α5β2γ2",α5β2γ2,full receptor inverse agonist
same,"functional effect on GABA EC20 current, α3β2γ2",α3β2γ2,partial receptor inverse agonist
same,"functional effect on GABA EC20 current, α2β2γ2",α2β2γ2,partial receptor inverse agonist
same,"functional effect on GABA EC20 current, α1β2γ2",α1β2γ2,no intrinsic effect
